Reference: patent US20230355571A1, “METHOD FOR TREATING VIRAL AND BACTERIAL INFECTION THROUGH INHALATION THERAPY” (priority 2020, published 2023)
Like-named read-outs stand apart in the source and are kept apart here.

Legend:
hTRPA1 = hTRPA1 (Homo sapiens, UniProt O75762); conditions: cited from earlier work; for inhibition of hTRPA1 activation by menthol and AITC: compound at 1 mM, menthol 1 mM, AITC 10 uM
rats [1] = conditions: oral, rat, cited from earlier work
[2] = cited from earlier work
guinea pigs [3] = conditions: cited from earlier work
[4] = tested on: primary human bronchial epithelial cells; conditions: pretreatment; cited from earlier work
H5N1 influenza A virus = conditions: 5 mM (816 mg/L) to 15 mM (2,448 mg/L), 24 hrs post-infection; cited from earlier work
COPD patients = conditions: orally 600 mg/day, cited from earlier work
mice [5] = conditions: inhalation; cited from earlier work
[6] = tested on: CdCl2 treated human lung cells; conditions: 2.5 mM; 75 μM CdCl2; cited from earlier work
rats [7] = experiment: NOAEL, oral, rats; format: in vivo
Description: The NOAEL value for Polysorbate 20 taken orally in rats is greater than 2,500 mg/kg (body weight), the highest dose tested.

mice [8] = conditions: cited from earlier work
CB2 receptor = CB2 receptor (Homo sapiens, UniProt P34972); conditions: unit inferred; read-out: Ki, CB2 receptor binding; cited from earlier work
CB2 receptor, sequence (P34972 whole entry): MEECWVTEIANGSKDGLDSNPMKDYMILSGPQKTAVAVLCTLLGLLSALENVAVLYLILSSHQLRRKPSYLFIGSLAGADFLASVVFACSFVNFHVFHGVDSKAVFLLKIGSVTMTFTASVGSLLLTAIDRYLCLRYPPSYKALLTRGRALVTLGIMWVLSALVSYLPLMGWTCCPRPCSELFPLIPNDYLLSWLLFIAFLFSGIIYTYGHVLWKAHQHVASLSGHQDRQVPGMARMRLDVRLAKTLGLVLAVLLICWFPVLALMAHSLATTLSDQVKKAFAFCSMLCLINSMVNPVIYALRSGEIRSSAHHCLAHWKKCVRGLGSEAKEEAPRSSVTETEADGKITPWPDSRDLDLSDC

mice [9] = conditions: intraperitoneal 5 and 10 mg/kg-d pretreatment; cited from earlier work
TRPV1 = TRPV1 (Homo sapiens, UniProt Q8NER1); conditions: cited from earlier work
TRPV1, sequence (Q8NER1 whole entry, species assumed): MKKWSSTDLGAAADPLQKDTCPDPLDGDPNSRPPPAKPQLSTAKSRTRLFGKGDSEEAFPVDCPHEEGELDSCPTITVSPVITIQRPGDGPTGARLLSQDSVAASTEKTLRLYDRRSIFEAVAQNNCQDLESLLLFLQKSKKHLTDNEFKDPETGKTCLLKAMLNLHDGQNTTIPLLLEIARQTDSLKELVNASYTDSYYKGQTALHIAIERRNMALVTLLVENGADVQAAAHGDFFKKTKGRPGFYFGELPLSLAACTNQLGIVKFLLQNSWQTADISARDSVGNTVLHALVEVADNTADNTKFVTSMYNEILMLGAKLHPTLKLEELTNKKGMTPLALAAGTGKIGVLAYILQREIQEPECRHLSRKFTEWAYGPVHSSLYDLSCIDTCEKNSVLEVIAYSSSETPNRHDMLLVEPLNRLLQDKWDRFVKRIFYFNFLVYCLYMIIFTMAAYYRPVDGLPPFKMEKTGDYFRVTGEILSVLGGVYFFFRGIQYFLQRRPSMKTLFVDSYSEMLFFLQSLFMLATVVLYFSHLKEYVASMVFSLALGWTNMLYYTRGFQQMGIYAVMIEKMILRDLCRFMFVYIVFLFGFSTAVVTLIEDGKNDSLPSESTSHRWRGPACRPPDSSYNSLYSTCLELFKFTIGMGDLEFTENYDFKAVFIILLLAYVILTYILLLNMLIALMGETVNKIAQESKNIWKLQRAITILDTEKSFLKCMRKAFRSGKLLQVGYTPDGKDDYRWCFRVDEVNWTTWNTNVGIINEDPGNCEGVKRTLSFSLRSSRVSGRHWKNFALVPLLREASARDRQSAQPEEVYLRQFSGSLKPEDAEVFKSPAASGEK

TRAPA1 = TRAPA1 (Homo sapiens, UniProt O75762); conditions: read-out: IC50, TRPA1 antagonist; cited from earlier work
TRAPA1, sequence (O75762 whole entry): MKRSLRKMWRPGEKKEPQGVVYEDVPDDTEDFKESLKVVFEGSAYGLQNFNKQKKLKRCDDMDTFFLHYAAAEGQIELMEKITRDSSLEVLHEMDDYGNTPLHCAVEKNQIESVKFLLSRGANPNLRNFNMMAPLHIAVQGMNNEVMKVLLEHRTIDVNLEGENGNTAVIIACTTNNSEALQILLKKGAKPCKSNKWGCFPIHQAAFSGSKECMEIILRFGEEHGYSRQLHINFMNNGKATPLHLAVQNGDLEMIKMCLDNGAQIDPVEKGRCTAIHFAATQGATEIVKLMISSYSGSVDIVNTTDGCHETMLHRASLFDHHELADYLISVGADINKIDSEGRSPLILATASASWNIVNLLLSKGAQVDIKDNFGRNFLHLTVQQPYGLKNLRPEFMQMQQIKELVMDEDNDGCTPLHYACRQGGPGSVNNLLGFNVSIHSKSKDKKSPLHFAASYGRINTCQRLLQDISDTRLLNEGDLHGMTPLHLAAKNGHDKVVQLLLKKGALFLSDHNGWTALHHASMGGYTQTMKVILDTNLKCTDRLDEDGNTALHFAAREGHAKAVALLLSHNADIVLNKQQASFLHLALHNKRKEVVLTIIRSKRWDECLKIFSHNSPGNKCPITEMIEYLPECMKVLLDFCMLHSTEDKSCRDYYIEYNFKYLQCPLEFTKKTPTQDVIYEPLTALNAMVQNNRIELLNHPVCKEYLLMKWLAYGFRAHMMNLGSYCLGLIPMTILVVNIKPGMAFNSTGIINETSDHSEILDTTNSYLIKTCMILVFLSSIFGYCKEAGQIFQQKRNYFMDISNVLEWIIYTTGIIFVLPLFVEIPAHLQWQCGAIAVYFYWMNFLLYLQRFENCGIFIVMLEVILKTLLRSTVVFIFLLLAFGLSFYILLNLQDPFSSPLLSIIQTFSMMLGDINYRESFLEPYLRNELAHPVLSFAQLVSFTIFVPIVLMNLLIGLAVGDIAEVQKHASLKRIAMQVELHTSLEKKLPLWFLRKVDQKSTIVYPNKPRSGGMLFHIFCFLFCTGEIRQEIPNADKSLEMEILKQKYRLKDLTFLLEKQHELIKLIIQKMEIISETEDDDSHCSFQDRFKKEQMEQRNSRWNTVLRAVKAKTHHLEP

TRPV4 = TRPV4 (Homo sapiens, UniProt Q9HBA0); conditions: cited from earlier work
TRPV4, sequence (Q9HBA0 whole entry, species assumed): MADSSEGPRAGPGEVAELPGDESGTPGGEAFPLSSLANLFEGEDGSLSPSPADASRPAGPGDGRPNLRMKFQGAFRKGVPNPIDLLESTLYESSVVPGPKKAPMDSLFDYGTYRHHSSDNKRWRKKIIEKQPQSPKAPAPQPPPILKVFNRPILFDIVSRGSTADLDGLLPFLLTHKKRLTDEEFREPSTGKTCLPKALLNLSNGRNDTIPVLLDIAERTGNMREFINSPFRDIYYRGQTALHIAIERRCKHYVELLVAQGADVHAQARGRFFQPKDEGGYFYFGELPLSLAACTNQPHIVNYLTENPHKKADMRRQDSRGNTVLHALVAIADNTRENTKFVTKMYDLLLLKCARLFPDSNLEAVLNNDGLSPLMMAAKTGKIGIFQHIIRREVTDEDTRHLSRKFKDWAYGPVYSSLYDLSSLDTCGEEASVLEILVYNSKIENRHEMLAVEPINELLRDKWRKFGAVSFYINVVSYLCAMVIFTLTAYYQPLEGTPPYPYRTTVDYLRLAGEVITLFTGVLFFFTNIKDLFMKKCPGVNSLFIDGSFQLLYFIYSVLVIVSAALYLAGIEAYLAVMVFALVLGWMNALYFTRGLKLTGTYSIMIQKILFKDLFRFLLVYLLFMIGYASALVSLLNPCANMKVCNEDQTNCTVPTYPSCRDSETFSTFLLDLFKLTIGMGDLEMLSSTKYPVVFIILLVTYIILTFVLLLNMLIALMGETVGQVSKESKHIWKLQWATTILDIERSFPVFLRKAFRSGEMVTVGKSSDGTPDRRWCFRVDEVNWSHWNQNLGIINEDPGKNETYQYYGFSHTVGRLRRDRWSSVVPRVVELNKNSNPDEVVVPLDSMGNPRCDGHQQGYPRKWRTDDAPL

HEK293 cell = conditions: cited from earlier work
asthma patients = conditions: human, in vivo; cited from earlier work
human MonoMac6 cells = conditions: cells pretreated; cited from earlier work
[10] = in vivo; cited from earlier work
mice [11] = experiment: NOAEL, oral, mice
mice [12] = conditions: oral (species not given; mice); cited from earlier work
leukemia K562 cells = conditions: in vitro and ex vivo; cited from earlier work
human lung cancer A549 = conditions: in vitro and ex vivo; cited from earlier work
guinea pigs [13] = conditions: pretreatment; cited from earlier work
[14] = tested on: Human respiratory syncytial virus (hRSV); conditions: 14 days prior to challenge and 3 days post challenge; cited from earlier work
[15] = 100 μM, in the presence of 2 mM N-acetyl cysteine; cited from earlier work
rats [16] = conditions: 50 mg/kg orally each day; smoke 1 hr/day for 56 days; cited from earlier work
[17] = 2 mL/dose 4 times per day of Table A2 composition
[18] = Table A2 Preferred Base Viral Nebulizer Liquid, single 2 mL dose, 25 mL ELF, 100 percent retained
[19] = Table A3 Preferred Viral Respiratory Challenged Nebulizer Liquid, single 2 mL dose, 25 mL ELF, 100 percent retained
[20] = Table A4 Preferred Bacterial Pneumonia Nebulizer Liquid, single 2 mL dose, 25 mL ELF, 100 percent retained
[21] = Table A6 Preferred Base Nebulizer Liquid with Amino Acids, single 2 mL dose, 25 mL ELF, 100 percent retained

hTRPA1, sequence (O75762 whole entry): as the sequence (O75762 whole entry) above

In the case of `CC1(C)[C@@H]2CC[C@@]1(C)[C@](C)(O)C2` [2-methylosoborneol, 2-methylisoborneol], the IC50 (hTRPA1; TRPA1 activated by 20 uM AITC, read-out: IC-50 concentration, inactivation of TRPA1 activation) is listed as 120000 nM, the “activation of hTRPA1” value (hTRPA1) is listed as “did not activate” and the “inhibition of hTRPA1 activation by menthol and AITC” value (shortened to “inhibition of hTRPA1 activation”) (hTRPA1) is listed as “completely inhibited”.
For `C=C1CC/C=C(\C)CC[C@@H]2[C@@H]1CC2(C)C` [B-Caryophyllene], the NOAEL (rats [1]; 90 d) is given as greater than 700 mg/kg and the “LD50” value ([2]; oral, rat) is given as >5,000 mg/kg.
In the case of `Cn1c(=O)c2c(CC(=O)Nc3nc(-c4ccc(F)c(C(F)(F)F)c4F)cs3)csc2n(C)c1=O` [GRC 17536], the “citric acid induced tussive response” value (guinea pigs [3]) is listed as “inhibited”.
In the case of `CC(C)c1ccc(NC(=O)Cn2cnc3c2c(=O)n(C)c(=O)n3C)cc1` [HC-030031], the “tussive response induced by TRPA1 agonists (AITC, acrolein, crotonaldehyde, cinnamaldehyde)” value (guinea pigs [3]) is given as “attenuated” and the “Ca^2+ influx induced by cigarette smoke extract” value [4] is given as “similar”.
For `CC(=O)N[C@@H](CS)C(=O)O` [N-acetyl cysteine], the “H5N1-induced cytopathogenic effects, virus-induced apoptosis, and viral yields” value (H5N1 influenza A virus) is given as “reduces”, the “sputum eosinophil cationic protein concentrations” value (COPD patients; COPD patients) is given as “reduced” and the “lung lavage glutathione levels” value (COPD patients) is given as “increased”. For the same compound, the “superoxide production by alveolar macrophages” value (COPD patients) was “reduced”, the “estimated concentration in the epithelial lining fluid of the lungs” value (human) was 889 µg/mL and the “lung fibrosis induced by bleomycin” value (mice [5]) was “inhibited”. For the same compound, the “morphology and viability of CdCl2 treated human lung cells” value [6] was “restored the morphology and viability”, the LD50 ([2]; in vivo) was 5050 mg/kg and the “LD50” value ([2]; oral, rat) was 5,050 mg/kg. The “Ca^2+ influx induced by cigarette smoke extract” value [4] was “prevented”.
For `CCCCCCCCCCCC(=O)OCCOCCOCCOCCOCCOCCOCCOCCOCCOCCOCCOCCOCCOCCOCCOCCOCCOCCOCCOCCOCC(OCCOCCOCCOCCOCCOCCOCCOCCOCCOCCOCCOCCOCCOCCOCCOCCOCCOCCOCCOCCO)C1OCC(OCCOCCOCCOCCOCCOCCOCCOCCOCCOCCOCCOCCOCCOCCOCCOCCOCCOCCOCCOCCO)C1OCCOCCOCCOCCOCCOCCOCCOCCOCCOCCOCCOCCOCCOCCOCCOCCOCCOCCOCCOCCO` (stereo not drawn) [Polysorbate 20], the “factor NOAEL over daily inhaled dose” value (rats [7]; [17]) was 2,980 times, the “NOAEL for a 62 kg adult human” value (rats [7]; extrapolated from rat NOAEL) was 155,000 mg per day and the “Concentration in Epithelial Lining Fluid” value [18] was 530 µg/mL. For the same compound, the “Concentration in Epithelial Lining Fluid” value [19] was 1070 µg/mL, the “Concentration in Epithelial Lining Fluid” value [20] was 1330 µg/mL and the “Concentration in Epithelial Lining Fluid” value [21] was 1330 µg/mL. For the same compound, the “Concentration in Epithelial Lining Fluid” value (human) was 1870 µg/mL, the NOAEL (rats [1]) was 2,500 mg/kg and the LD50 ([2]; in vivo) was 3,850 mg/kg.
For `Oc1ccc(C=Cc2cc(O)cc(O)c2)cc1` [Resveratrol], the “cigarette smoke-induced lung inflammation” value (mice [8]) is given as “decreased”.
In the case of `CCCCC/C=C\C/C=C\C/C=C\C/C=C\CCCC(=O)OC(CO)CO` [Table 2-AG, 2-arachidonoyl-glycerol, reference compound], the Ki (CB2 receptor) is listed as 650 nM.
For `NCCS(=O)(=O)O` [Taurine], the “Concentration in Epithelial Lining Fluid” value (human) was 2670 µg/mL.
For `COc1ccc2cc3[n+](cc2c1OC)CCc1cc2c(cc1-3)OCO2` [berberine], the “cigarette smoke-induced airway inflammation and mucus production” value (mice [9]) is listed as “inhibited”.
In the case of `CC1(C)C2CCC1(C)C(O)C2` (stereo not drawn) [borneol], the “activation of hTRPA1” value (hTRPA1) is given as “did not activate” and the “inhibition of hTRPA1 activation” value (hTRPA1) is given as “completely inhibited”.
In the case of `CC12CCC(CC1=O)C2(C)C` (stereo not drawn) [camphor], the “activation of hTRPA1” value (hTRPA1) is given as “did not activate”.
In the case of `COc1cc(O)cc(O)c1C(=O)/C=C/c1ccccc1` [cardamonin], the “effect on TRPV1” value (TRPV1) is listed as “not affecting”, the IC50 (TRAPA1) is listed as 454 nM and the “effect on TRPV4” value (TRPV4) is listed as “not affecting”. For the same compound, the HEK293 cell viability (HEK293 cell) was “did not significantly reduce”.
In the case of `CC12CCC(C1)C(C)(C)C2O` (stereo not drawn) [fenchyl alcohol], the “activation of hTRPA1” value (hTRPA1) is given as “did not activate” and the “inhibition of hTRPA1 activation” value (hTRPA1) is given as “completely inhibited”.
For `N[C@@H](CCC(=O)N[C@@H](CS)C(=O)NCC(=O)O)C(=O)O` [glutathione, γ-L-glutamyl-L-cysteinyl-glycine], the “change from baseline FEV1” value (asthma patients) is given as −19%, the “change from baseline total pulmonary resistance” value (asthma patients) is given as “+61%” and the “estimated concentration in the epithelial lining fluid of the lungs” value (human) is given as 889 µg/mL. For the same compound, the “cigarette smoke extract-mediated IL-8 release” value (human MonoMac6 cells) was “significantly inhibited”, the “adverse effects of aerosol administration” value [10] was “no adverse effects” and the “period epithelial lung fluid glutathione remained elevated” value [10] was 2 h. The LD50 ([2]; in vivo) was 5000 mg/kg and the “LD50” value ([2]; oral, mouse) was 5,000 mg/kg.
For `C/C1=C2/[N-][C@H]([C@H](CC(N)=O)[C@@]2(C)CCC(=O)NC[C@@H](C)OP(=O)([O-])O[C@H]2[C@@H](O)[C@@H](n3cnc4cc(C)c(C)cc43)O[C@@H]2CO)[C@]2(C)N=C(/C(C)=C3N=C(/C=C4N=C1[C@@H](CCC(N)=O)C\4(C)C)[C@@H](CCC(N)=O)[C@]\3(C)CC(N)=O)[C@@H](CCC(N)=O)[C@]2(C)CC(N)=O.[CH3-].[Co+3]` [methylcobalamin], the “factor NOAEL over daily inhaled dose” value (mice [11]; [17]) was 596,254 times, the “NOAEL for a 62 kg adult human” value (mice [11]; extrapolated from mouse NOAEL) was 31,000 mg per day and the “Concentration in Epithelial Lining Fluid” value [18] was 0.5 µg/mL. For the same compound, the “Concentration in Epithelial Lining Fluid” value [19] was 1.1 µg/mL, the “Concentration in Epithelial Lining Fluid” value [20] was 1.1 µg/mL and the “Concentration in Epithelial Lining Fluid” value [21] was 1.1 µg/mL. For the same compound, the NOAEL (mice [12]) was 500 mg/kg.
In the case of `O=C1CC2CC[C@H]1C2` [norcamphor], the “activation of hTRPA1” value (hTRPA1) is given as “did not activate”.
In the case of `CCNC(=O)CC[C@H](N)C(=O)O` [theanine, L-theanine], the “Concentration in Epithelial Lining Fluid” value (human) is given as 2670 µg/mL, the “growth of K562 cells” value (leukemia K562 cells) is given as “significantly suppressed” and the “growth of A549 cells” value (human lung cancer A549) is given as “significantly suppressed”.
In the case of `CC1=CC(=O)C(C(C)C)=CC1=O` [thymoquinone], the “bronchoalveolar lavage fluid IL-8” value (guinea pigs [13]) is given as “significantly decreased” and the “bronchoalveolar lavage fluid LTB4” value (guinea pigs [13]) is given as “did not significantly change”.
In the case of `OC[C@@H](O)[C@H](O)[C@@H](O)CO` [xylitol], the “lung virus titers versus phosphate-buffered saline controls” value [14] is given as “significantly greater reductions”.
For epigallocatechin-3-gallate, the “increase of cellular uptake” value [15] is listed as 2.5 times, the “cigarette smoke-induced oxidative stress and neutrophilic inflammation, airway mucus production and collagen deposition” value (rats [16]) is listed as “ameliorated” and the “bronchoalveolar lavage fluid IL-8” value (guinea pigs [13]) is listed as “significantly reduced”. The “bronchoalveolar lavage fluid LTB4” value (guinea pigs [13]) was “significantly reduced”.
